# PubChem BioAssay AID179 (DTP/NCI, 2004)
# Several values for one entry are separate records, joined by “and”; a condition that tells them apart may be missing. Identical values can stand only once. Activity calls are given as the source filed them.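 The calls were made as follows: active = compounds giving half or more protection of infected cells from virus-caused growth loss, again on retest; inactive = the rest.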 Where a SMILES comes first, the peptide text is derived from it.
# Tested on: CEM cells HIV-1 protection, formazan growth assay
# Assay: NCI AIDS Antiviral Assay
# Conditions: for IC50: measured here: growth of uninfected CEM cells
# Description: The ability of compounds to protect human CEM cells from HIV-1 infection is measured as a screen for new compounds capable of inhibiting the HIV virus. Five concentrations of drug were tested on uninfected and infected cells and cell growth was measured using a soluble formazan assay. […] Compounds that provided at least 50% protection were retested. Compounds that provided at least 50% protection on retest were listed as moderately active. Compounds that reproducibly provided 100% protection were listed as confirmed active. […] Note that the inability to provide protection could be due to toxicity.
SMILES,EC50 [µM],IC50,outcome
CCC(C#N)NCc1cccc(CNC(C#N)CC)c1 (stereo not given),> 200,> 200 µM,–
c1ccc(-c2cc(-c3cc(-c4ccccc4)n[nH]3)[nH]n2)cc1,> 200,> 200 µM,–
Cc1nc2c(Br)cc(Br)cc2c(=O)n1-c1ccccc1NC1OC(CO)C(O)C(O)C1O (stereo not given),> 200,> 200 µM and 105 µM,–
O=C1C2C3SC(c4c3ccc3ccccc43)C2C(=O)N1c1ccccc1 (stereo not given),> 2.95,> 2.95 µM,–
COC1=CC(=O)C(=O)c2c(C)ccnc21,–,–,inactive
O=C1CCC2(CCCCC2)N1,> 200,> 200 µM,–
COC1=CC(=O)C(O)=C(CC2(C)C(C)CCC3(C)C2CCCC3(C)C)C1=O (stereo not given),> 95.5,6.46 µM,–
C=CCC(N)Cc1ccccc1 (stereo not given),> 200,> 200 µM,–
Cc1nc(N)nc(N)c1N1CCN(Cc2ccccc2)CC1,> 200,6.92 µM,–
CCN=C(NC(=O)c1ccccc1F)SCSC(=NCC)NC(=O)c1ccccc1F,> 200,55 µM,–
COc1c2cc(C(C)(C)C)cc1CSCc1cc(C(C)(C)C)cc(c1OC)CCCCC2,> 200,> 200 µM,–
CSCCC(N)P(C)(=O)O (stereo not given),> 200,> 200 µM,–
O=c1[nH]nc(Cc2ccccc2)n1CCO,–,–,inactive
O=C(O)/C=C\SCCCC(=O)O,> 1320,> 1320 µM and 1100 µM,–
O=C1OC(/C=C/c2ccccc2)C(=O)C1=O (stereo not given),> 1150,> 1150 µM,–
O=C1c2ccccc2CC12Cc1cc3c(cc1C2)CCC3,> 200,> 200 µM,–
COc1ccc(-c2cc(-c3ccco3)c(C#N)c(=O)[nH]2)cc1,> 24.5,> 24.5 µM,–
COc1ccccc1NC(=S)/N=C/c1c(O)[nH]c(=O)[nH]c1=O,> 200,> 200 µM,–
COc1ccc2nc3cccc([N+](=O)[O-])c3c(NCCCCCC(=O)O)c2c1,> 2,0.302 µM,–
CCOP(=O)(C=C=C(C)C)OCC,> 200,> 200 µM,–
CC(C)(C)OC(=O)Nc1nnc(S(N)(=O)=O)s1,182,> 200 µM,–
COc1ccc2c(c1)OC[C@]1(C)c3cc(O)c(OCc4ccccc4)cc3O[C@H]21,–,–,inactive

SMILES,EC50 [µM],IC50,outcome
O=S1c2ccccc2SCSc2ccccc21,> 200,> 200 µM,–
O=C1CCCC1CN1CCCC1 (stereo not given),–,–,inactive
COc1ccc(-c2cc(NC(=O)c3ccccc3)c(=O)oc2C)cc1,> 200,> 200 µM,–
C1SCSCS1,> 200,> 200 µM,–
NC(N)=NS(=O)(=O)c1ccc(Nc2c3ccccc3nc3c(C(=O)Nc4ccc(S(N)(=O)=O)cc4)cccc23)cc1,8.32,31.6 µM,–
O=P1(Cc2ccccc2)c2ccccc2-c2ccccc21,> 200,3.63 µM,–
CN(C)Cc1cc(O)c(CN(C)C)cc1O,> 200,9.33 µM,–
CN(C)CCCNC(=O)c1cc(NC(=O)c2cc(NC(=O)c3cc(NC(=O)c4ccc(C(=O)Nc5cc(C(=O)Nc6cc(C(=O)Nc7cc(C(=O)NCCCN(C)C)n(C)c7)n(C)c6)n(C)c5)nc4)cn3C)cn2C)cn1C,5.37,> 100 µM,–
CN1CC2CC3=C(CCC45CC6C(C=C34)C63CCC4(CC67CCC8C9(C)CCCC8%10C(C6CC4CC7%10)N(C)C9)OC53)C(C)(C2)C1 (stereo not given),–,–,inactive
CN(C)CC(=O)C1C(=O)N(C)c2ccccc21 (stereo not given),> 200,> 200 µM,–
CCOC(=O)C(NC(=O)c1ccccc1)(Nc1ccc(S(=O)(=O)Nc2cc(C)on2)cc1)C(F)(F)F (stereo not given),> 200,> 200 µM,–
COc1ccc(OC(C(=O)O)c2ccccc2)c2c1CCCC2=O (stereo not given),–,–,inactive
N=[N+]=CC(=O)OCC(N)C(=O)O (stereo not given),> 200,2.88 µM,–
CCN1C[C@]2(C)CC[C@H](OC)C34C5C[C@@H]6[C@@H](OC)C[C@@](OC)(C5[C@H]6OCc5ccccc5)C(C13)[C@H](OC(C)=O)[C@@H]42 (stereo not given in full),> 200,105 µM,–
CSc1ccc(OCC2OC2O)cc1 (stereo not given),> 24.5,> 24.5 µM,–
Cc1cc([N+](=O)[O-])ccc1Sc1c2ccccc2nc2cc(Cl)ccc12,> 19.1,> 19.1 µM,–
N#CCN1CCCN(CC#N)CCN(CC#N)CCCN(CC#N)CC1,> 200,141 µM,–
CC1=C(C)C(N2CCOCC2)CS(=O)(=O)O1 (stereo not given),> 200,> 200 µM,–
COC(=O)C(/C(=N/N)C(=O)Nc1cccc(O)c1)c1nc2ccccc2[nH]c1=O (stereo not given),> 34.7,> 34.7 µM,–
CC1(c2nc3ccccc3[nH]2)CCC(CO)C(C)(C)O1 (stereo not given),> 200,> 200 µM,–
COC(=O)CSc1n[nH]c(-c2ccccc2)n1,> 1000,372 µM,–
O=c1cnc2c(ccc3ccccc32)[nH]1,> 182,> 182 µM,–

SMILES,EC50 [µM],IC50,outcome
Cn1c(-c2ccccc2)cc2c3ccsc3c3ccsc3c21,> 200,45.7 µM,–
COc1ccc(/C(C#N)=C/c2cccc([N+](=O)[O-])c2)cc1,> 200,> 200 µM,–
O=C(CCCN1CCC(C(O)c2ccc(F)cc2)CC1)c1ccc(F)cc1 (stereo not given),> 95.5,79.4 µM,–
COC(=O)C1=Nc2c(C)nn(-c3ccccc3)c2N=C(c2ccccc2)C1,> 200,> 200 µM,–
C=C(CO[Si](C)(C)C(C)(C)C)C(C)=O,–,–,inactive
O=[N+]([O-])c1ccc(/C=C/c2c[n+]([O-])nc3ccccc23)cc1,> 200,> 200 µM,–
COc1cccc(C2C(C(=O)O)=C(CO)Oc3cc4c(cc32)OCO4)c1OC (stereo not given),–,–,inactive
O=S(=O)(O)c1cc(N=Nc2cc(S(=O)(=O)O)c3cccnc3c2O)ccc1CCc1ccc(N=Nc2cc(S(=O)(=O)O)c3cccnc3c2O)cc1S(=O)(=O)O,1.7,9.33 µM,–
O=S(=O)(O)C(O)CC(O)S(=O)(=O)O (stereo not given),> 200,102 µM,–
CC(N)C(=O)NC(CO)C(=O)NC(Cc1ccc(O)cc1)C(=O)NC(CO)C(=O)NC(C(=O)O)C(C)O (stereo not given) (H-ASYST-OH; configuration not given here),> 95.5,> 95.5 µM,–
CCCCCCN(CCCCCC)C1=CC(=O)C(=O)c2ccccc21,> 95.5,16.6 µM,–
Cn1c(=O)c2c3ccccc3c(C(=O)c3ccccc3)n2c2ccccc21,> 51.3,3.09 µM,–
Cc1cc(S(N)(=O)=O)c(SCc2nc(N)nc(N(C)C)n2)cc1Cl,> 200,> 200 µM,–
CCO[C@]12C[C@H](OC)[C@@]3(O)CC(C1[C@H]3O)C13C4C2[C@H](OC)C1[C@](COC)(CN4CC)[C@H](O)C[C@@H]3OC (stereo not given in full),> 200,1.58 µM,–
Oc1c(Br)cc(Br)cc1-c1[nH]c(Br)c(Br)c1Br,> 234,1.02 µM,–
Nc1n(CC(=O)c2ccccc2)nc2sc(-c3ccccc3)n[n+]12,> 200,10.2 µM,–
C[C@@H]1C(=O)O[C@@H]2C[C@@]1(C)[C@@H]1C(=O)C3(O)OC14C2(C)OC(=O)[C@@]4(O)CCC1C3C(O)C=C2CC=CC(=O)[C@@]21C (stereo not given in full),> 200,20 µM,–
Cc1ccc2c(ccc(/C=C\c3cc(C)c4cccnc4c3O)[n+]2C)c1,> 39.8,0.776 µM,–
COc1cc(N=Nc2ccc3c(c2)Cc2ccccc2-3)c(OC)cc1N,> 200,46.8 µM,–
Cc1c2ccccc2nc(CSCCC(C)C)[n+]1[O-],28.8,135 µM,–
O=C(O[C@@H]1C(=O)N2CC[C@H]3OC(O)[C@@H]1[C@H]32)c1ccc([N+](=O)[O-])cc1 (stereo not given in full),> 200,> 200 µM,–
Cc1ccc(NC(=O)CCC/C(CC(=O)c2ccc(Br)cc2)=N/NC(=O)CC#N)cc1,> 102,> 102 µM,–

SMILES,EC50 [µM],IC50,outcome
COc1ccc(NC(=O)Nc2onc(C)c2C)c(Cl)c1,> 191,151 µM,–
O=C(C=Nc1ccccc1C(=O)[O-])c1ccco1.O=C(C=Nc1ccccc1C(=O)[O-])c1ccco1.[Cu+2],> 1.91,> 1.91 µM,–
O=c1c2c(sc3ccccc13)NCN(CCc1ccccc1)C2,17.4,40.7 µM,–
O=C(c1ccccc1)C1(C(=O)c2ccccc2)/C(=N\O)C2CCC1C2 (stereo not given),> 53.7,20.9 µM,–
O=C(NC(Cc1cnc[nH]1)C(=O)N1CCCC1)C1CCCC1 (stereo not given),> 200,–,–
Cc1ccc(-n2[nH]nc(C#N)c2=O)cc1,> 200,> 200 µM,–
CC(C)(C)[Si](C)(C)OCC1OC(n2ccc(=O)[nH]c2=O)CC1(O)C/C=N/O (stereo not given),> 200,12.6 µM,–
CCN(CC)CCOc1ccc(/C=C(\C#N)c2ccc(N(CC)CC)cc2)cc1,> 200,0.891 µM,–
CC(=O)O[C@@H]1CC[C@]2(C)C3CC[C@]4(C)C(C(C)CCc5nc6ccccc6n5C(C)=O)CCC4C3[C@H](OC(C)=O)C[C@@H]2C1 (stereo not given in full),> 50.1,3.16 µM,–
O=C(N/N=C\c1ccc[nH]1)c1ccncc1,> 200,> 200 µM,–
COc1cc2c(c(OC)c1OC)C(=O)[C@@H]1[C@H]2N1C(=O)NCCCl,> 200,45.7 µM,–
COC(=O)/C=C\C(=O)/C=C/COC(=O)c1ccccc1,> 132,20.9 µM,–
O=CC(O)C(O)C(O)C(O)C(=O)NCCCCCCCCCCCCNC(=O)C(O)C(O)C(O)C(O)C=O (stereo not given),> 200,> 200 µM,–
O=C(O)c1ccccc1NS(=O)(=O)c1ccc([N+](=O)[O-])cc1,–,–,inactive
Cc1cccc(NC(=O)Nc2ccccc2)n1,> 200,97.7 µM,–
O=C(O)c1c[nH]c2c(ccc3[nH]cc(C(=O)O)c(=O)c32)c1=O,> 200,> 200 µM,–
CO/N=C1/c2sccc2[C@H](NC(=O)CNC(=O)OC(C)(C)C)[C@@H]1O,> 200,> 200 µM,–
COc1ccc(COC2C(C/[N+]([O-])=N\Nc3ccc([N+](=O)[O-])cc3)OC3OC(C)(C)OC32)cc1 (stereo not given),> 200,12.6 µM,–
COc1ccc([C@H]2C=[N+]([O-])O[C@H](OC3CCCC3)[C@@H]2OC(C)=O)cc1OC,> 200,11.2 µM,–
